Results taken from US8623862B2, “Derivatives of N-[(1H-pyrazol-1-yl)aryl]-1H-indole or 1H-indazole-3-carboxamide, preparation thereof and applications thereof in therapeutics” (Sanofi, priority 2011, dated 2014).
Structures can show the parent of a compound that is named as a salt. Where two headings read alike, the source gives them in different places.

System: platelet aggregation
Experiment: Inhibition of platelet aggregation in vitro (rat blood);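 further: aggregation induced by ADP added as 4 µL of a 250 µM solution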
Type: cell-based
Details: read-out: Inhibition of platelet aggregation in vitro (rat blood);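 further: aggregation induced by ADP added as 4 µL of a 250 µM solution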
Description: The measurements of platelet aggregation are performed at 37° C. in glass tubes (Chrono-Log—Kordia aggregometer).
Inhibition of Platelet Aggregation In Vitro (Rat Blood)
The blood is taken from male rats of the Sprague-Dawley strain, weighing 250-300 g.
The platelet-rich plasma (PRP) is obtained by centrifugation of the blood at 300 g for 5 minutes, and the measurements of platelet aggregation are performed as described above.
The results are calculated using the area under the curve of absorbance measured for 6 minutes, and expressed as percentage inhibition.

[1] = rat platelet-rich plasma, ADP-induced aggregation, area under the curve of absorbance for 6 minutes

Row | Structure (SMILES) | IC50 (rat blood, in vitro) | IC50 [1] | also measured
1 | CCCC(=O)c1cnn(-c2ccc(NC(=O)c3cn(CC(=O)N(C)CCN(C)C)c4cc(C)c(C)cc34)cc2)c1C [Compound 110] | 3990 nM |  | 
2 | CCCC(=O)c1cnn(-c2ccc(NC(=O)c3nn(CC(=O)O)c4ccc(C)cc34)cc2)c1C [Compound 24] |  | 37000 nM | 
3 | CCCC(=O)c1cnn(-c2ccc(NC(=O)c3cn(CC(=O)N(C)CCCO)c4ccc(Cl)cc34)nn2)c1C [Compound 72] |  | 60 nM | 
4 | CCCC(=O)c1cnn(-c2ccc(NC(=O)c3cn(CC(=O)N4CCNCC4C)c4ccc(Cl)cc34)cc2)c1C (stereo not shown) [Compound 258] |  | 300 nM | 
5 | CCCC(=O)c1cnn(-c2ccc(NC(=O)c3cn(CC(=O)O)c4cc(Cl)c(Cl)cc34)cc2)c1C [Compound 17] |  | 7300 nM | 
6 | CCCC(=O)c1cnn(-c2ccc(NC(=O)c3cn(CC(=O)N4CCN(CC(=O)N(C)C)CC4)c4ccc(Cl)cc34)nn2)c1C [Compound 101] |  | 110 nM | 
7 | CCCC(=O)c1cnn(-c2ccc(NC(=O)c3cn(CC(=O)N4CC(O)C4)c4ccc(Cl)cc34)nn2)c1C [Compound 66] |  | 220 nM | 
8 | CCCC(=O)c1cnn(-c2ccc(NC(=O)c3cn(CC(=O)NC4CCNC4)c4ccc(C)cc34)cc2)c1C (stereo not shown) [Compound 245] |  | 530 nM | 
9 | CCCC(=O)c1cnn(-c2ccc(NC(=O)c3cn(CC(=O)N4CCN(C)C(=O)C4)c4ccc(Cl)cc34)nn2)c1C [Compound 44] |  | 160 nM | 
10 | CCCC(=O)c1cnn(-c2ccc(NC(=O)c3cn(CC(=O)O)c4ccc(OC)cc34)cc2)c1C [Compound 12] |  | 17000 nM | 
11 | CCCC(=O)c1cnn(-c2ccc(NC(=O)c3cn(CC(=O)N4CCN(CCO)CC4)c4ccc(C)cc34)cc2)c1C [Compound 116] | 260 nM |  | 
12 | CCCC(=O)c1cnn(-c2ccc(NC(=O)c3cn(CC(=O)N4CCOCC4)c4ccc(Cl)cc34)nn2)c1C [Compound 35] |  | 190 nM | 
13 | CCCC(=O)c1cnn(-c2ccc(NC(=O)c3cn(CC(=O)NCc4cc(C)no4)c4ccc(Cl)cc34)nn2)c1C [Compound 96] |  | 930 nM | 
14 | CCCC(=O)c1cnn(-c2ccc(NC(=O)c3cn(CC(=O)N4CC5CC4CN5C)c4ccc(C)cc34)cc2)c1C (stereo not shown) [Compound 264] |  | 560 nM | 
15 | CCCC(=O)c1cnn(-c2ccc(NC(=O)c3cn(CC(=O)N4CCN(CCO)CC4)c4ccc(Cl)cc34)nn2)c1C [Compound 95] |  | 50 nM | 
16 | CCCC(=O)c1cnn(-c2ccc(NC(=O)c3cn(CC(=O)N4CCN(CC(=O)OCC)CC4)c4ccc(Cl)cc34)nn2)c1C [Compound 34] |  | 90 nM | 
17 | CCCC(=O)c1cnn(-c2ccc(NC(=O)c3cn(CC(=O)N4CCN(C(C)C)CC4)c4ccc(Cl)cc34)nn2)c1C [Compound 54] |  | 110 nM | 
18 | CCCC(=O)c1cnn(-c2ccc(NC(=O)c3cn(CC(=O)N4CCN(C5CCS(=O)(=O)C5)CC4)c4ccc(Cl)cc34)nn2)c1C (stereo not shown) [Compound 73] |  | 50 nM | 
19 | CCCC(=O)c1cnn(-c2ccc(NC(=O)c3cn(CC(=O)N4CCN(C)C(C)C4)c4ccc(Cl)cc34)nn2)c1C (stereo not shown) [Compound 77] |  | 90 nM | 

Row | Structure (SMILES) | IC50 (rat blood, in vitro) | IC50 [1] | also measured
20 | CCCC(=O)c1cnn(-c2ccc(NC(=O)c3cn(CC(=O)N4CCN(Cc5ccc(F)cc5)CC4)c4ccc(Cl)cc34)nn2)c1C [Compound 92] |  | 200 nM | 
21 | CCCC(=O)c1cnn(-c2ccc(NC(=O)c3cn(CC(=O)N4CCN(C)CC4)c4ccc(C)cc34)cc2)c1C [Compound 114] | 270 nM |  | 
22 | CCCC(=O)c1cnn(-c2ccc(NC(=O)c3cn(CC(=O)N(C)CC4CCOC4)c4ccc(Cl)cc34)nn2)c1C (stereo not shown) [Compound 91] |  | 120 nM | 
23 | CCCC(=O)c1cnn(-c2ccc(NC(=O)c3cn(CC(=O)N4CCN(CCC)CC4)c4ccc(Cl)cc34)nn2)c1C [Compound 48] |  | 140 nM | 
24 | CCCC(=O)c1cnn(-c2ccc(NC(=O)c3cn(CC(=O)N4CCNCC4CO)c4ccc(C)cc34)cc2)c1C (stereo not shown) [Compound 254] |  | 190 nM | 
25 | CCCC(=O)c1cnn(-c2ccc(NC(=O)c3cn(CC(=O)N4CC5CNCC5C4)c4ccc(C)cc34)cc2)c1C (stereo not shown) [Compound 255] |  | 180 nM | 
26 | CCCC(=O)c1cnn(-c2ccc(NC(=O)c3cn(CC(=O)N4CCN(CCN(C)C)CC4)c4ccc(Cl)cc34)nn2)c1C [Compound 98] |  | 70 nM | 
27 | CCCC(=O)c1cnn(-c2ccc(NC(=O)c3cn(CC(=O)N4CCN(CC(=O)NC(C)C)CC4)c4ccc(Cl)cc34)nn2)c1C [Compound 39] |  | 40 nM | 
28 | CCCC(=O)c1cnn(-c2ccc(NC(=O)c3cn(CC(=O)NCCn4cccc4)c4ccc(Cl)cc34)nn2)c1C [Compound 58] |  | 450 nM | 
29 | CCCC(=O)c1cnn(-c2ccc(NC(=O)c3cn(CC(=O)N(C)CCN(C)C)c4ccc(Cl)cc34)nn2)c1C [Compound 97] |  | 90 nM | 
30 | CCCC(=O)c1cnn(-c2ccc(NC(=O)c3cn(CC(=O)N4CCNC(C)C4)c4ccc(C)cc34)cc2)c1C (stereo not shown) [Compound 242, N-[4-(4-Butyryl-5-methyl-1H-pyrazol-1-yl)phenyl]-5-methyl-1-[2-(3-methylpiperazin-1-yl)-2-oxoethyl]-1H-indole-3-carboxamide hydrochloride] |  |  | IC50 (0.1 h, rat platelet-rich plasma, ADP-induced aggregation, area under the curve of absorbance for 6 minutes): 510 nM
31 | CCCC(=O)c1cnn(-c2ccc(NC(=O)c3cn(CC(=O)O)c4ccc(C#N)cc34)cc2)c1C [Compound 23] |  | 4100 nM | 
32 | CCCC(=O)c1cnn(-c2ccc(NC(=O)c3cn(CC(=O)N4CCC(CCO)CC4)c4ccc(Cl)cc34)nn2)c1C [Compound 50] |  | 50 nM | 
33 | CCCC(=O)c1cnn(-c2ccc(NC(=O)c3cn(CC(=O)N4CC(N5CCCCC5)C4)c4ccc(Cl)cc34)nn2)c1C [Compound 86] |  | 390 nM | 
34 | CCCC(=O)c1cnn(-c2ccc(NC(=O)c3cn(CC(=O)NC)c4ccc(Cl)cc34)nn2)c1C [Compound 32] |  | 190 nM | 
35 | CCCC(=O)c1cnn(-c2ccc(NC(=O)c3cn(CC(=O)O)c4cc(C)c(Br)cc34)cc2)c1C [Compound 20] |  | 3900 nM | 
36 | CCCC(=O)c1cnn(-c2ccc(NC(=O)c3cn(CC(=O)O)c4cc(Br)c(C)cc34)cc2)c1C [Compound 19] |  | 42000 nM | 
37 | CCCC(=O)c1cnn(-c2ccc(NC(=O)c3cn(CC(=O)N4CC5CCCCN5CC4C)c4ccc(Cl)cc34)nn2)c1C (stereo not shown) [Compound 89] |  | 170 nM | 
38 | CCCC(=O)c1cnn(-c2ccc(NC(=O)c3cn(CC(=O)N(C)C)c4ccc(Cl)cc34)nn2)c1C [Compound 36] |  | 110 nM | 

Continued, in another order:

Row | IC50 (rat blood, in vitro) | Structure (SMILES) | IC50 [1] | also measured
39 | 600 nM | CCC(=O)c1cnn(-c2ccc(NC(=O)c3cn(CC(=O)N4CCN(C)CC4)c4ccc(Cl)cc34)cc2)c1C [Compound 217] |  | 
40 | 660 nM | CCCC(=O)c1cnn(-c2ccc(NC(=O)c3cn(CC(=O)N4CC5CC4CN5C4CCC4)c4ccc(Cl)cc34)cc2)c1C (stereo not shown) [Compound 214] |  | 
41 | 830 nM | CCCC(=O)c1cnn(-c2ccc(NC(=O)c3cn(CC(=O)N4CCC(OCCOC)C4)c4ccc(Cl)cc34)cc2)c1C (stereo not shown) [Compound 206] |  | 
42 | 410 nM | CCCC(=O)c1cnn(-c2ccc(NC(=O)c3cn(CC(=O)N4CCN(CC(=O)N5CCCC5)CC4)c4ccc(Cl)cc34)cc2)c1C [Compound 198] |  | 
43 | 170 nM | CCCC(=O)c1cnn(-c2ccc(NC(=O)c3cn(CC(=O)N4CCc5[nH]ncc5C4)c4ccc(Cl)cc34)cc2)c1C [Compound 173] |  | 
44 | 230 nM | CCCC(=O)c1cnn(-c2ccc(NC(=O)c3cn(CC(=O)N4CCN(C)C(CCOC)C4)c4ccc(Cl)cc34)cc2)c1C (stereo not shown) [Compound 196] |  | 
45 | 470 nM | CCCC(=O)c1cnn(-c2ccc(NC(=O)c3cn(CC(=O)N4CCCN(C)CC4)c4ccc(C)cc34)cc2)c1C [Compound 130] |  | 
46 | 370 nM | CCCC(=O)c1cnn(-c2ccc(NC(=O)c3cn(CC(=O)N4CCC(OCCO)C4)c4ccc(Cl)cc34)cc2)c1C (stereo not shown) [Compound 208] |  | 
47 | 290 nM | CCCC(=O)c1cnn(-c2ccc(NC(=O)c3cn(CC(=O)N4CCN(CC(F)F)CC4)c4ccc(C)cc34)cc2)c1C [Compound 118] |  | 
48 | 550 nM | CCCC(=O)c1cnn(-c2ccc(NC(=O)c3cn(CC(=O)N4CC[C@@H](C(=O)NC5CC5)C4)c4ccc(Cl)cc34)cc2)c1C [Compound 188] |  | 
49 | 410 nM | CCCC(=O)c1cnn(-c2ccc(NC(=O)c3cn(CC(=O)N4CCC(N5CCOCC5)CC4)c4ccc(Cl)cc34)cc2)c1C [Compound 149] |  | 
50 | 150 nM | CCCC(=O)c1cnn(-c2ccc(NC(=O)c3cn(CC(=O)N4CCN(CC(=O)N(C)C)CC4)c4ccc(Cl)cc34)cc2)c1C [Compound 154] |  | 
51 | 480 nM | CCCC(=O)c1cnn(-c2ccc(NC(=O)c3cn(CC(=O)N(C)CCOC)c4ccc(Cl)cc34)cc2)c1C [Compound 200] |  | 
52 | 500 nM | CCCC(=O)c1cnn(-c2ccc(NC(=O)c3cn(CC(=O)N4CCN(CC)CC4)c4ccc(C)cc34)cc2)c1C [Compound 117] |  | 
53 | 270 nM | CCCC(=O)c1cnn(-c2ccc(NC(=O)c3cn(CC(=O)N4CC5CCC(C4)N5C)c4ccc(Cl)cc34)cc2)c1C [Compound 192] |  | 
54 | 170 nM | CCCC(=O)c1cnn(-c2ccc(NC(=O)c3cn(CC(=O)N4CCN(C)C(=O)C4)c4ccc(Cl)cc34)cc2)c1C [Compound 184] |  | 
55 | 370 nM | CCCC(=O)c1cnn(-c2ccc(NC(=O)c3cn(CC(=O)N4CCN(Cc5ccccc5OC)CC4)c4ccc(Cl)cc34)cc2)c1C [Compound 168] |  | 
56 | 100 nM | CCCC(=O)c1cnn(-c2ccc(NC(=O)c3cn(CC(=O)N4CCN(CCO)CC4)c4ccc(Cl)cc34)cc2)c1C [Compound 146] |  | 
57 | 400 nM | CCCC(=O)c1cnn(-c2ccc(NC(=O)c3cn(CC(=O)N4CCN(C)CC4)c4ccc(OC)cc34)cc2)c1C [Compound 136] |  | 
58 | 490 nM | CCCC(=O)c1cnn(-c2ccc(NC(=O)c3cn(CC(=O)N4Cc5cnn(C)c5C4)c4ccc(Cl)cc34)cc2)c1C [Compound 174] |  | 
59 | 370 nM | CCCC(=O)c1cnn(-c2ccc(NC(=O)c3cn(CC(=O)N4CCN(CCOCC)CC4)c4ccc(Cl)cc34)cc2)c1C [Compound 161] |  | 
60 | 270 nM | CCCC(=O)c1cnn(-c2ccc(NC(=O)c3cn(CC(=O)N4CCn5cnnc5C4)c4ccc(Cl)cc34)cc2)c1C [Compound 182] |  | 
61 | 210 nM | CCCC(=O)c1cnn(-c2ccc(NC(=O)c3cn(CC(=O)N4CCN(C(C)C)CC4)c4ccc(C)cc34)cc2)c1C [Compound 124] |  | 
